Reference: patent US9522160B2, “Ophthalmic formulations” (Inotek Pharmaceuticals Corporation, priority 2013, dated 2016)
One block for each compound: values may come before it.

Columns and labels:
[1] = Stability study of a 3% suspension of Compound A (Formulation 3) spiked with latanoprost; latanoprost and latanoprost acid by HPLC; assay type: physicochemical
Method: Latanoprost is added, usually aseptically, to the Formulation after the curing step or after all other formulation steps as described above. For example latanoprost can be spiked into Formulation 3 with Compound A at 3.0% (Example 5 above) to prepare a unit dosage of a combination of Compound A with a concentration of latanoprost of about 50 ug/ml. A stability study has been done to study the stability of a combination of a suspension of Compound A as Formulation 3 and latanoprost. The stability study is described below.
A 10 mL sample of a 3% suspension of Compound A spiked with latanoprost at 50 μg/mL was used for the stability study. Ethanol was used to disperse the latanoprost into the suspension of Compound A. The final solution ethanol target was 0.5% so for 10 mLs of the suspension, the latanoprost was dissolved in 50 μL of ethanol.
For 10 mls of the suspension, 0.5 mg of latanoprost was needed for the spike. A 50 μL sample of a commercial solution containing 10 mg/mL of latanoprost in methyl acetate was taken and the solvent removed under vacuum. The residue was taken up in 50 μL of ethanol.
A 9.950 mL sample of the suspension, taken with a 5 mL autopipette (2×4.975 mL) was spiked with the ethanol solution with mixing.
After taking a 500 μL T0 sample, the bulk solution was divided into 3 containers that were set down at 2-8° C., 25° C./60RH and 40° C./75RH.
The solution in this case would be 0.5 mg in 8.5 mL volume or […] of latanoprost in the suspension. Therefore for analysis, the theoretical latanoprost in solution after a 50% dilution with acetonitrile was 29.4 μg/mL.
A calibration curve of latanoprost acid was also prepared using the commercial solution that contained 10 mg/mL in methyl acetate.
In contrast to the latanoprost standards, these solutions were prepared in 100% acetonitrile.
The solutions injected were 5, 2.5 and 1.25 μg/mL solutions.
The stability samples were prepared by vortex mixing and sonication of the suspension followed by a 50% dilution with acetonitrile. After centrifugation the supernatant was injected on the HPLC.
The assay results are shown below in Table 2 where the calculated concentration is shown in μg/mL. (The theory concentration is 29.4 μg/ml),
4 week samples. For the 4 week 25° C./60 and 40° C./75 samples the calculated latanoprost acid values were 0.4 and 0.3 μg/mL respectively. The impurities increased slightly at 3 months. For the 3 month 25° C./60 and 40° C./75 samples the calculated latanoprost acid values were 0.63 and 3.92 μg/mL respectively.
Except for the 40° C./75 sample at 3 months the values for all other samples were below the calibration curve concentrations and therefore below the detection level of the method.

retinal ganglion cells = conditions: formulation of Compound A; cited from earlier work
normotensive monkeys = conditions: Compound A in combination with latanoprost; cited from earlier work

Latanoprost Assay Results ([1]; 2-8° C., 2 Weeks): 32.29 µg/mL
Latanoprost Assay Results (% T0) ([1]; 2-8° C., 2 Weeks): 109 % T0
Latanoprost Assay Results (% T0) ([1]; 2-8° C., 3 Months): 121.1 % T0
Latanoprost Assay Results ([1]; 2-8° C., 3 Months, sample contained some latanoprost impurities): 35.63 µg/mL
Latanoprost Assay Results ([1]; 2-8° C., 4 Weeks): 33.97 µg/mL
Latanoprost Assay Results (% T0) ([1]; 2-8° C., 4 Weeks): 115 % T0
Latanoprost Assay Results ([1]; 25° C./60, 2 Weeks): 32.37 µg/mL
Latanoprost Assay Results (% T0) ([1]; 25° C./60, 2 Weeks): 110 % T0
Latanoprost Assay Results (% T0) ([1]; 25° C./60, 3 Months): 103.5 % T0
Latanoprost Assay Results ([1]; 25° C./60, 3 Months, sample contained some latanoprost impurities): 30.42 µg/mL
Latanoprost Assay Results (% T0) ([1]; 25° C./60, 4 Weeks): 112 % T0
Latanoprost Assay Results ([1]; 25° C./60, 4 Weeks, sample contained some latanoprost impurities): 32.90 µg/mL
Latanoprost Assay Results ([1]; 40° C./75, 2 Weeks): 31.35 µg/mL
Latanoprost Assay Results (% T0) ([1]; 40° C./75, 2 Weeks): 106 % T0
Latanoprost Assay Results (% T0) ([1]; 40° C./75, 3 Months): 89.0 % T0
Latanoprost Assay Results ([1]; 40° C./75, 3 Months, sample contained some latanoprost impurities): 26.18 µg/mL
Latanoprost Assay Results (% T0) ([1]; 40° C./75, 4 Weeks): 101 % T0
Latanoprost Assay Results ([1]; 40° C./75, 4 Weeks, sample contained some latanoprost impurities): 29.90 µg/mL
Latanoprost Assay Results ([1]; T0, 3% Compound A suspension spiked with latanoprost, 50% dilution with acetonitrile, theory concentration 29.4 μg/ml): 29.49 µg/mL
Compound: CC(C)OC(=O)CCC/C=C\C[C@@H]1[C@@H](CC[C@@H](O)CCc2ccccc2)[C@H](O)C[C@@H]1O [Latanoprost, latanoprost]

latanoprost acid present in stability sample ([1]; 2-8° C., 4 week sample): No latanoprost acid was present
latanoprost acid present in stability sample ([1]; 2 week samples): No latanoprost acid was present
latanoprost acid present in stability sample ([1]; T0 sample): No latanoprost acid was present
Compound: O=C(O)CCC/C=C\C[C@@H]1[C@@H](CC[C@@H](O)CCc2ccccc2)[C@H](O)C[C@@H]1O [latanoprost acid]

Compound: O=[N+]([O-])OC[C@H]1O[C@@H](n2cnc3c(NC4CCCC4)ncnc32)[C@H](O)[C@@H]1O [Compound A, ((2R,3S,4R,5R)-5-(6-(cyclopentylamino)-9H-purin-9-yl)-3,4-dihydroxytetrahydrofuran-2-yl)methyl nitrate]
neuroprotective effect on retinal ganglion cells (retinal ganglion cells): neuroprotective effect
IOP reduction (normotensive monkeys): significant IOP reduction
